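Growth conditions: 96-well plates. Treatment: test compound, 48 hours, 5 concentrations. Analysis: linear interpolation between bracketing concentrations; unreached endpoints set to highest concentration. Abbreviation: GI50, concentration required for 50% inhibition of growth.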 The source made the active and inactive calls. Cut-off read from the data, not from the text of the source: active = GI50 up to about 1.1 µM and inactive = higher.
Key:
Assay in all cases: inhibition of tumour cell growth, NCI panel, 48 h
786-0 = tested on: 786-0
A549 = tested on: A549
ACHN = tested on: ACHN
DU-145 = tested on: DU-145
EKVX = tested on: EKVX
HCT-116 = tested on: HCT-116
HCT-15 = tested on: HCT-15
IGROV-1 = tested on: IGROV-1
MCF7 = tested on: MCF7
MDA-MB-435 = tested on: MDA-MB-435
MDA-N = tested on: MDA-N
NCI-H226 = tested on: NCI-H226
NCI-H23 = tested on: NCI-H23
NCI-H522 = tested on: NCI-H522
OVCAR-8 = tested on: OVCAR-8
SK-MEL-28 = tested on: SK-MEL-28
SN12C = tested on: SN12C
SNB-75 = tested on: SNB-75
U-251 = tested on: U-251
UACC-62 = tested on: UACC-62

| Structure (SMILES) | GI50 (786-0) | GI50 (A549) | GI50 (ACHN) | GI50 (DU-145) | GI50 (EKVX) | GI50 (HCT-116) | GI50 (HCT-15) | GI50 (IGROV-1) | GI50 (MCF7) | GI50 (MDA-MB-435) | GI50 (MDA-N) | GI50 (NCI-H226) | GI50 (NCI-H23) | GI50 (NCI-H522) | GI50 (OVCAR-8) | GI50 (SK-MEL-28) | GI50 (SN12C) | GI50 (SNB-75) | GI50 (U-251) | GI50 (UACC-62) |
| --- | --- | --- | --- | --- | --- | --- | --- | --- | --- | --- | --- | --- | --- | --- | --- | --- | --- | --- | --- | --- |
| CCCCSC1=N/C(=C\c2ccco2)C(Cl)=N1 | > 100 µM (inactive) | > 100 µM (inactive) | > 100 µM (inactive) | > 100 µM (inactive) | > 100 µM (inactive) | > 100 µM (inactive) | > 100 µM | > 100 µM (inactive) | > 100 µM (inactive) | > 100 µM (inactive) | > 100 µM (inactive) | > 100 µM (inactive) | > 100 µM (inactive) | > 100 µM (inactive) | > 100 µM (inactive) | > 100 µM (inactive) | > 100 µM (inactive) | > 100 µM (inactive) | > 100 µM (inactive) | > 100 µM (inactive) |
| Cc1c2c(Cl)c3c(c(Cl)c2c(C)c2c(Cl)c4c(c(Cl)c12)C(c1ccccc1)(c1ccccc1)C4(c1ccccc1)c1ccccc1)C(c1ccccc1)(c1ccccc1)C3(c1ccccc1)c1ccccc1 | > 100 µM (inactive) | > 100 µM (inactive) | > 100 µM (inactive) | > 100 µM (inactive) | > 100 µM (inactive) | > 100 µM (inactive) | > 100 µM | > 100 µM (inactive) | > 100 µM (inactive) | > 100 µM (inactive) | > 100 µM (inactive) | > 100 µM (inactive) | > 100 µM (inactive) | > 100 µM (inactive) | > 100 µM (inactive) | > 100 µM (inactive) | > 100 µM (inactive) | > 100 µM (inactive) | > 100 µM (inactive) | > 100 µM (inactive) |
| CC(=O)OCOC(=O)CN(CC(=O)OCOC(C)=O)Cc1cc2c(cc1OC(C)=O)Oc1cc(OC(C)=O)c(CN(CC(=O)OCOC(C)=O)CC(=O)OCOC(C)=O)cc1C21OC(=O)c2ccccc21 | 0.346 µM (active) | 0.953 µM (active) | 1.38 µM (inactive) | 1.47 µM (inactive) | 2.52 µM (inactive) | 0.303 µM (active) | 1.66 µM | 0.277 µM (active) | 0.342 µM (active) | 0.782 µM (active) | 0.309 µM (active) | 1.34 µM (inactive) | 0.481 µM (active) | 0.237 µM (active) | 1.15 µM (inactive) | 0.484 µM (active) | 1.13 µM (inactive) | 1.36 µM (inactive) | 1.87 µM (inactive) | 0.232 µM (active) |
| CCOc1ccc(/N=N/C2C(=O)N(C(=O)CC(=O)Nc3ccccc3)N=C2C)cc1 (stereo unspecified) | > 100 µM (inactive) | 34.5 µM (inactive) | > 100 µM (inactive) | > 100 µM (inactive) | 17.4 µM (inactive) | 29.1 µM (inactive) | 57.4 µM | 37.3 µM (inactive) | 54.8 µM (inactive) | 5.07 µM (inactive) | 2.68 µM (inactive) | > 100 µM (inactive) | 78.3 µM (inactive) | 83.9 µM (inactive) | > 100 µM (inactive) | 48.5 µM (inactive) | 82 µM (inactive) | 23.1 µM (inactive) | 34.8 µM (inactive) | 39.5 µM (inactive) |
| N#CC(C#N)=Cn1c(=S)[nH]c2ccc([N+](=O)[O-])cc21 | > 100 µM (inactive) | > 100 µM (inactive) | > 100 µM (inactive) | > 100 µM (inactive) | > 100 µM (inactive) | > 100 µM (inactive) |  | > 100 µM (inactive) | > 100 µM (inactive) | > 100 µM (inactive) | > 100 µM (inactive) | > 100 µM (inactive) | > 100 µM (inactive) | > 100 µM (inactive) | > 100 µM (inactive) | > 100 µM (inactive) | > 100 µM (inactive) | 15.2 µM (inactive) | > 100 µM (inactive) | > 100 µM (inactive) |
| CC12CCCC3(CC(=O)C(C)(C)C3C(=O)C1)C2 (stereo unspecified) | > 100 µM (inactive) | > 100 µM (inactive) | > 100 µM (inactive) | > 100 µM (inactive) | > 100 µM (inactive) | > 100 µM (inactive) | > 100 µM | > 100 µM (inactive) | > 100 µM (inactive) | > 100 µM (inactive) | > 100 µM (inactive) | > 100 µM (inactive) | > 100 µM (inactive) | > 100 µM (inactive) | > 100 µM (inactive) | > 100 µM (inactive) | > 100 µM (inactive) | > 100 µM (inactive) | > 100 µM (inactive) | > 100 µM (inactive) |
| Cc1nn(C(=O)c2ccncc2)c2c1C(c1ccccc1)SC(=N)N2 (stereo unspecified) | > 10 µM (inactive) | > 10 µM (inactive) | > 10 µM (inactive) | > 10 µM (inactive) | > 10 µM (inactive) | > 10 µM (inactive) | > 10 µM | > 10 µM (inactive) | > 10 µM (inactive) | > 10 µM (inactive) | > 10 µM (inactive) | > 10 µM (inactive) | > 10 µM (inactive) | > 10 µM (inactive) | > 10 µM (inactive) | > 10 µM (inactive) | > 10 µM (inactive) | > 10 µM (inactive) | > 10 µM (inactive) | > 10 µM (inactive) |
| CC(=O)Nc1nc(NC(C)=O)c2nc(CO)[nH]c2n1 | > 100 µM (inactive) | > 100 µM (inactive) | > 100 µM (inactive) | > 100 µM (inactive) | > 100 µM (inactive) | > 100 µM (inactive) | > 100 µM | > 100 µM (inactive) | > 100 µM (inactive) | > 100 µM (inactive) | > 100 µM (inactive) | > 100 µM (inactive) | > 100 µM (inactive) | > 100 µM (inactive) | > 100 µM (inactive) | > 100 µM (inactive) | > 100 µM (inactive) | > 100 µM (inactive) | > 100 µM (inactive) | > 100 µM (inactive) |
| COc1ccc2c(c1OC)C(=O)N/C2=C\c1c(CCN(C)C)cc2c(c1OC)OCO2 | > 100 µM (inactive) | > 100 µM (inactive) | > 100 µM (inactive) | > 100 µM (inactive) | > 100 µM (inactive) | 83.2 µM (inactive) | > 100 µM | 38.6 µM (inactive) | > 100 µM (inactive) | 31.5 µM (inactive) | 25.6 µM (inactive) | > 100 µM (inactive) | > 100 µM (inactive) | 37.6 µM (inactive) | > 100 µM (inactive) | > 100 µM (inactive) | > 100 µM (inactive) | < 0.01 µM (active) | > 100 µM (inactive) |  |
| NC(=S)Nc1c(S(N)(=O)=O)cc(S(N)(=O)=O)c(Cl)c1Cl | > 100 µM (inactive) | > 100 µM (inactive) |  | > 100 µM (inactive) | > 100 µM (inactive) | > 100 µM (inactive) | > 100 µM | > 100 µM (inactive) | > 100 µM (inactive) | > 100 µM (inactive) | > 100 µM (inactive) | > 100 µM (inactive) | > 100 µM (inactive) | > 100 µM (inactive) | > 100 µM (inactive) | > 100 µM (inactive) | > 100 µM (inactive) | > 100 µM (inactive) | > 100 µM (inactive) | > 100 µM (inactive) |
| CNc1cc(N)ccc1C(=O)N1CCC[C@H]1CO | > 100 µM (inactive) | > 100 µM (inactive) | > 100 µM (inactive) | > 100 µM (inactive) | > 100 µM (inactive) | > 100 µM (inactive) | > 100 µM | > 100 µM (inactive) | > 100 µM (inactive) | > 100 µM (inactive) | > 100 µM (inactive) | 27.3 µM (inactive) |  | > 100 µM (inactive) | > 100 µM (inactive) | > 100 µM (inactive) | > 100 µM (inactive) | > 100 µM (inactive) | > 100 µM (inactive) | > 100 µM (inactive) |
| CNN1C(=O)c2c(C)c(C)c(C#N)c(N)c2C1=O | > 100 µM (inactive) | > 100 µM (inactive) | > 100 µM (inactive) | > 100 µM (inactive) | > 100 µM (inactive) | > 100 µM (inactive) | > 100 µM | > 100 µM (inactive) | > 100 µM (inactive) | > 100 µM (inactive) | > 100 µM (inactive) | > 100 µM (inactive) |  | > 100 µM (inactive) | > 100 µM (inactive) | > 100 µM (inactive) | > 100 µM (inactive) | 83.2 µM (inactive) | > 100 µM (inactive) | > 100 µM (inactive) |
| O=C(O)C1CCCCC1c1c2ccc(=O)c(O)c-2oc2c(O)c(O)ccc12 (stereo unspecified) | 19.3 µM (inactive) | 13 µM (inactive) | 14 µM (inactive) | 52.1 µM (inactive) | 38.1 µM (inactive) | 13.2 µM (inactive) |  | 26.2 µM (inactive) | 14.2 µM (inactive) | 16.7 µM (inactive) | 17.2 µM (inactive) | 12.1 µM (inactive) |  | 14.5 µM (inactive) | 22 µM (inactive) | 69.5 µM (inactive) | 19.3 µM (inactive) | 28.3 µM (inactive) | 7.4 µM (inactive) | 23.6 µM (inactive) |
| c1ccc2c(c1)Nc1cccc3c1c-2nc1cc2ccccc2cc13 | 1.72 µM (inactive) | 1.8 µM (inactive) | 1.53 µM (inactive) | 1.7 µM (inactive) | 1.55 µM (inactive) | 1.75 µM (inactive) |  | 1.41 µM (inactive) | 1.56 µM (inactive) | 2 µM (inactive) | 1.45 µM (inactive) | 1.85 µM (inactive) | 1.32 µM (inactive) | 1.98 µM (inactive) |  | 1.74 µM (inactive) | 1.69 µM (inactive) | 1.41 µM (inactive) | 2.03 µM (inactive) | 2.12 µM (inactive) |

— ChEMBL document CHEMBL1201862, “PubChem BioAssay data set” (2004)
